According to US5599807A, “Steroid derivatives” (Senju Pharmaceutical Co., Ltd., priority 1993, dated 1997):
Counter-ions that a name gives are not always drawn.

Test system: rat carrageenin-induced pleuritis
Assay: Inhibitory effect on rat carrageenin-induced pleuritis (dye leakage into pleural cavity)
Assay type: in vivo, Wistar rats
Details: NFLX-DX 13.4 mg/kg orally 30 min before induction, n = 7
Description: Inhibitory Effect of the Compound on Rat Carrageenin-induced Pleuritis The inhibitory effect of norfloxacin-dexamethasone ester hydrochloride on rat carrageenin-induced pleuritis was evaluated. [Test substance] Norfloxacin-dexamethasone ester hydrochloride (abbreviatedname: NFLX-DX) Wistar rats weighing about 200 g were used. Two groups receiving (1) distilled water (5 ml/kg) and (2) NFLX-DX (13.4 mg/kg), respectively, were provided. Under pentobarbital anesthesia, 0.1 ml of 2% λ-carrageenin was injected into the rat pleura to induce pleuritis. Five hours after the construction of pleuritis, a 5% aqueous solution of Pontamine Sky Blue (2 mg/kg) was injected intravenously, and 20 minutes later the rat was sacrificed and the pleural exudate was collected using a tube. The amount of dye leakage in the pleural cavity (μg/site) was estimated from the amount and absorbance (625 nm) of the exudate sample (ml) by the calibration curve method. The test substance was administered orally (5 ml/kg) 30 minutes before induction of inflammation.

CCn1cc(C(=O)OCC(=O)[C@@]2(O)[C@H](C)C[C@H]3[C@@H]4CCC5=CC(=O)C=C[C@]5(C)[C@@]4(F)[C@@H](O)C[C@@]32C)c(=O)c2cc(F)c(N3CCNCC3)cc21 [NFLX-DX, 9-Fluoro-11β,17,21-trihydroxy-16α-methyl-1,4-pregnadiene-3, 20-dione-21-[1-ethyl-6-fluoro-1,4-dihydro-7-(1-piperazinyl)-4-oxo-3-quinolinecarboxylate]hydrochloride]
Dye leakage (mean ± standard error, * p < 0.01 vs control (distilled water, 74.81 ± 10.70)): 20.02 ± 3.80 μg/site | % Inhibition (inhibition of dye leakage vs control (distilled water)): 73.0%
